The values below come from patent US20200299671A1, “IMMOBILIZED MULTI-ENZYMATIC HALOGENATION SYSTEM” (priority 2019, published 2020).

The subject of experiment [1] is PltM. In words: Cell-based activity assay of PltM (Assay 3), wild-type PltM. On the set-up: species or system E. coli BL21 (DE3). Conditions: cells expressing wild-type PltM; 1 added to culture. The protocol: (§1) E. coli BL21 (DE3) cells were transformed with ppltM-pET28a, ppltMK87A-pET28a, ppltML111Y-pET28a, ppltMS404Y-pET28a, and ppltA-pET28a. The ppltA-pET28a plasmid overexpressing the halogenase PltA whose substrate is pyrrolyl-S-PltL (a peptidyl carrier protein-linked pyrrole) was used as a negative control. Five colonies from each transformant were cultured in 2×500 mL of LB medium (for ppltM-pET28a, ppltML111Y-pET28a, and ppltMS404Y-pET28a) and 1×500 mL of LB medium (for ppltMK87A-pET28a and ppltA-pET28a) with 50 μg/mL kanamycin at 37° C. and 200 rpm until attenuance of 0.2 at 600 nm. The cultures were then moved to 25° C. until attenuance of 0.5. Protein expression was induced by adding 0.2 mM IPTG to all […] flasks, and the cultures were incubated with shaking for 1 h. 12.5 μg/mL of compound 1 was added to 1×500 mL of LB medium containing ppltM-pET28a, ppltMK87A-pET28a, ppltML111Y-pET28a, ppltMS404Y-pET28a, and ppltA-pET28a. Compound 1 was not added to the three remaining flasks (negative controls). After additional incubation for 20 h, the cells were pelleted at 5,000 g for 10 min, and the supernatant was collected. The supernatant was extracted with EtOAc (3×330 mL), which was dried in vacuo. […]
(§2) The halogenation reaction products were analyzed by HPLC or LC-MS by injecting 10 μL of each sample. […]
(§3) For HPLC analysis, the molecules were observed by absorbance at λ=275 nm as described above. […]

Experiment [2] has as its system PltM K87A. Put plainly: Cell-based activity assay (Assay 3), PltM K87A. Also on record: species or system E. coli BL21 (DE3). As to conditions: cultures expressing PltM K87A. As for the experimental part: as §1, §2, §3
The target in experiment [3] is PltM (Pseudomonas protegens, UniProt Q4KCZ3). In words: X-ray crystallography of PltM crystals soaked with FAD and substrates. As to conditions: crystals soaked with 0.5 mM FAD and substrate. As for the experimental part:
PltM crystals were obtained by the hanging drop method with drops containing 0.5 μL of PltM (40 mg/mL) and 0.5 μL of the reservoir solution (0.1 M Tris pH 8, 0.2 M NaCl, 0.1 M CaCl2) and 12-17% PEG 8000). The drops were equilibrated against 0.5 mL of reservoir solution at 21° C. Long rod-shaped crystals appeared after 1-3 days. The crystals were cryoprotected by a gradual transfer to the solution with the same composition as the reservoir solution, additionally containing 20% glycerol. The crystals were then frozen by a rapid immersion into liquid nitrogen.
However, PltM contains eight Cys residues, which, if accessible, would react with Hg salts. […] The structure was determined by the single anomalous dispersion (SAD) method from the EMP derivative data set (using the wavelength of 1.0 Å), as follows. […] This Hg substructure was used as an input in Autosolve in PHENIX suite to obtain initial phases, which were bootstrapped by difference Fourier analysis to yield the total of 33 Hg atoms and a readily interpretable electron density map, with the figure of merit of 0.71 after density modification. […]
PltM crystals were soaked in the reservoir solution used to obtained native PltM crystals, with additional 0.5 mM of FAD. […] FAD was readily discernable in the omit Fo-Fc map. […]

Sequence of PltM (Pseudomonas protegens, UniProt Q4KCZ3) (Q4KCZ3 entry or part of it): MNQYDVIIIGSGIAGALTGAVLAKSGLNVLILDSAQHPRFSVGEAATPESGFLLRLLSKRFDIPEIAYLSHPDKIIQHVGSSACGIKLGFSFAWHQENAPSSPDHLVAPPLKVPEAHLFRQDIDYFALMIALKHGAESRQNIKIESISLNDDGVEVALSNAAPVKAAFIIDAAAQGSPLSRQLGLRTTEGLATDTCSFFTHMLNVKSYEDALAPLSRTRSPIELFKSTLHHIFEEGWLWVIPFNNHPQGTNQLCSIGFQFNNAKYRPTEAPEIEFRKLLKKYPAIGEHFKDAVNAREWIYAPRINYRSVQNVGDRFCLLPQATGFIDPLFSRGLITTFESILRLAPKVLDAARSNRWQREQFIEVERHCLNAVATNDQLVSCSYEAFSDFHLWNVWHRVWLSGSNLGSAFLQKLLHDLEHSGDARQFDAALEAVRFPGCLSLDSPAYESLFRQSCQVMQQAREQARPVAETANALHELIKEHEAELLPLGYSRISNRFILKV

For the compound `Oc1cc(O)cc(O)c1` [Compound 1, phloroglucinol], the “halogenation in fermentation culture” value is “generated mono- and dichlorinated 1” in experiment [1]; “No halogenated product was observed” in experiment [2]. In experiment [3], the “omit Fo-Fc electron density of substrate in soaked PltM crystals” value is given as “yielded omit Fo-Fc electron density”.
